The text below walks through data of patent US20250368623A1, “PYRIDAZINONE-DERIVED COMPOUNDS FOR THE MODULATION OF MYC AND FOR MEDICAL USES” (GENETIC INTELLIGENCE, INC, priority 2022, published 2025).

What all share (assay type): cell-based
For assay [1], the system named is MYC protein. Kind of assay: Western blot of MYC protein in human cancer cell lines. The following applies: about 1 μM, 2-day incubation, e.g., A549 or HepG2, GAPDH loading control, vs DMSO. As for the experimental part: The level of reduction of MYC protein following treatment with test compounds is also assessed by Western blot according to the following protocol. The human cancer cell lines (e.g., A549 or HepG2) are seeded at 20,000 cells per well in a 96-well plate. After 1 day, the cells are treated with test compounds at a final concentration of about 1 μM. After a 2-day incubation period, the supernatant is removed from the wells and RIPA buffer is added to create cell lysates. The lysates are analyzed by Western blot and probed with a MYC-specific antibody (e.g., Proteintech 10828-1-AP) together with a GAPDH-specific antibody (e.g., Proteintech 10494-1-AP) to serve as loading control. The intensities of Western blot bands are quantified by FIJI (Image J). The relative expression value of MYC following treatment with a test compound is calculated by dividing the intensity of the MYC band of the sample with the intensity of its own GAPDH band. The value so obtained is presented as a percentage of that of the no-compound, solvent only (DMSO)-treated sample. A lower percentage of MYC protein in a sample with respect to the DMSO-treated sample indicates greater percentage reduction in MYC protein level due to the test compound, and vice versa.
A general note: A western blot detects proteins with antibodies after separation by electrophoresis.

In assay [2] the test system is HepG2. Kind of assay: CCK-8 cell viability assay, HepG2. The following applies: Homo sapiens; CCK-8, HepG2, 2-day or 3-day incubation, cytotoxic effect. (Tetrazolium dyes change colour on reduction, which living cells bring about.)
Experimental: The effect of test compounds on cell viability is determined using the CCK-8 assay kit (Dojindo CK04-1000) according to the following protocol. The human cancer cell lines (e.g., A549, HepG2, JeKo-1, MDA-MB-231, etc.) and non-cancer human cell lines (e.g., HEK-293, HaCaT, etc.), are seeded at 20,000 cells per well in a 96-well plate. After 1 day, the cells are treated with test compounds at various final concentrations (e.g., 10 nM, 31.6 nM, 100 nM, 316 nM, 1 μM, 3.16 μM, 10 μM, 20 μM, etc.). After a 2-day or 3-day incubation period, 10 μL of CCK-8 solution, which contains the WST-8 dye, is added to each well according to the kit manufacturer's protocol. After incubation for 1-4 hours, the absorbance at 450 nm is measured using a microplate reader. The absorbance at 450 nm measures the amount of WST-8 that is reduced to WST-8 formazan by cellular dehydrogenases, which is directly proportional to the number of living cells. The cytotoxic effect of test compounds at different concentrations is calculated by subtracting from 1 the ratio of absorbance of the compound-treated sample at 450 nm to that of the no-compound, solvent only (DMSO)-treated sample. […] The IC50 values for the cytotoxic effect of each test compound in A549, HepG2, JeKo-1, and/or MDA-MB-231 cells are determined by plotting a dose-response curve to calculate the concentration of test compound that produces half of the maximum cytotoxic effect.
The subject of assay [3] is HepG2. Kind of assay: CellTiter-Glo 2.0 cell viability assay, HepG2. The following applies: Homo sapiens, 48 h; CellTiter-Glo 2.0, HepG2, 2-day incubation. (In general: ATP-based viability assays read luminescence as a measure of living cells.)
Experimental: (§1) The effect of test compounds on cell viability is also determined using the CellTiter-Glo 2.0 assay kit (Promega G9241) according to the following protocol. The human cancer cell line (e.g., HepG2) and a non-cancer human cell line (e.g., HEK-293), are seeded at 20,000 cells per well in a 96-well plate. After 1 day, the cells are treated with test compounds at various concentrations (e.g., 10 nM, 31.6 nM, 100 nM, 316 nM, 1 μM, 3.16 μM, 10 μM, 20 μM, etc.). After a 2-day incubation period, the CellTiter-Glo 2.0 assay is performed according to the kit manufacturer's protocol. […] The contents are mixed for 2 minutes on an orbital shaker to induce cell lysis, and incubated for 10 minutes at room temperature, following which the luminescent signal is measured using a microplate reader. […] The cytotoxic effect of test compounds at different concentrations is calculated by subtracting from 1 the ratio of the luminescence signal of the compound-treated sample to that of the no-compound, solvent only (DMSO)-treated sample. […] The IC50 values for the cytotoxic effect of each test compound in HepG2 cells are determined by plotting a dose-response curve to calculate the concentration of test compound that produces half of the maximum cytotoxic effect. […]
Assay [4] relates to HEK-293. The assay is described as follows: CellTiter-Glo 2.0 cell viability assay, HEK-293. The settings on record: Homo sapiens, HEK293, 48 h; CellTiter-Glo 2.0, HEK-293, 2-day incubation.
Experimental: as §1

As usually defined, the IC50 is the point on the concentration scale where inhibition reaches its midpoint. High values mean lower potency, low ones higher potency. On to `Cc1nc(C)c(-c2ccc(=O)n(CC3CCN(c4ncnc5ncccc45)CC3)n2)s1` [6-(2,4-dimethylthiazol-5-yl)-2-((1-(pyrido[2,3-d]pyrimidin-4-yl)piperidin-4-yl)methyl)pyridazin-3(2H)-one], for which the “% reduction of MYC protein” value in assay [1] was determined as 67%. Moreover, the 50% inhibitory concentration (IC50) was determined as 300 nM in assay [2], 100 nM in assay [3] and 72900 nM in assay [4].
